Laboratory results published in ChEMBL document CHEMBL3751679, “DNA cleavage at the AP site via β-elimination mediated by the AP site-binding ligands” (Bioorg Med Chem, 2016).
The source made the active and inactive calls. The calls are words filed in the database; no cut-off is given here.

Key:
Homo sapiens [1] = organism: Homo sapiens; test: Binding affinity to duplex DNA1(AP)/DNA2(G) (unknown origin) assessed as APE1 catalyzed beta-elimination product formation by gel electrophoresis
Homo sapiens [2] = organism: Homo sapiens; test: Binding affinity to duplex DNA1(AP)/DNA2(A) (unknown origin) assessed as APE1 catalyzed beta-elimination product formation by gel electrophoresis
Homo sapiens [3] = organism: Homo sapiens; test: Binding affinity to duplex DNA1(AP)/DNA2(C) (unknown origin) assessed as beta-elimination product formation by HPLC analysis
Homo sapiens [4] = organism: Homo sapiens; test: Binding affinity to duplex DNA1(AP)/DNA2(C) (unknown origin) assessed as APE1 catalyzed beta-elimination product formation by gel electrophoresis
Homo sapiens [5] = organism: Homo sapiens; test: Binding affinity to duplex DNA1(AP)/DNA2(C) (unknown origin) assessed as beta-elimination product formation after 1 hr at pH 8 by gel electrophoresis
Homo sapiens [6] = organism: Homo sapiens; test: Binding affinity to duplex DNA1(AP)/DNA2(C) (unknown origin) assessed as beta-elimination product formation at 10 uM pH 7 by gel electrophoresis
Homo sapiens [7] = organism: Homo sapiens; test: Binding affinity to duplex DNA1(AP)/DNA2(T) (unknown origin) assessed as beta-elimination product formation at 10 uM pH 7 by gel electrophoresis
Homo sapiens [8] = organism: Homo sapiens; test: Binding affinity to duplex DNA1(AP)/DNA2(G) (unknown origin) assessed as beta-elimination product formation at 10 uM pH 7 by gel electrophoresis
Homo sapiens [9] = organism: Homo sapiens; test: Binding affinity to duplex DNA1(AP)/DNA2(A) (unknown origin) assessed as beta-elimination product formation at 10 uM pH 7 by gel electrophoresis
Homo sapiens [10] = organism: Homo sapiens; test: Binding affinity to duplex DNA1(AP)/DNA2(T) (unknown origin) assessed as APE1 catalyzed beta-elimination product formation by gel electrophoresis

SMILES	Activity (Homo sapiens [4])	Activity (Homo sapiens [6])	Activity (Homo sapiens [7])	Activity (Homo sapiens [8])	Activity (Homo sapiens [9])	further results
NCCCNCCCNCCCn1ccc(N)nc1=O	–	–	–	–	–	Activity (Homo sapiens [1]): inactive
Cc1cn(CCCNCCCNCCCN)c(=O)[nH]c1=O	–	–	–	–	–	Activity (Homo sapiens [2]): inactive
NCCCNCCCNCCCn1cnc2c(=O)[nH]c(N)nc21	Active	Active	inactive	inactive	inactive	Activity (Homo sapiens [3]): Active; Activity (Homo sapiens [5]): Active
NCCCNCCCNCCCn1cnc2c(N)ncnc21	–	Active	Active	Active	Active	Activity (Homo sapiens [10]): Active
NCCCNCCCN	inactive	–	–	–	–	–
